The numbers were not newly measured in patent publication US20030215406A1, “Cosmetic or dermatological preparations containing aminogaunidine, derivatives thereof or structural analogs thereof” (Beiersdorf AG, priority 2000, published 2003), which cites them from elsewhere.

With `N=C(N)NN` [Aminoguanidine], the solubility in alcohol entry (solvent: alcohol) is reported as “soluble”. In addition, the solubility in ether result (solvent: ether) is “insoluble”. For the same compound, the solubility in water entry (solvent: water) is “soluble”.
